The target in test [1] is Sodium- and chloride-dependent GABA transporter 1 (Homo sapiens, UniProt P30531). The test is described as follows: Displacement of [3H]Tiagabine from human recombinant GAT1 expressed in HEK293 cells by equilibrium binding assay. The test is classed as cell-based. Background: Loss of bound radioactivity is the signal in a displacement assay; it reports binding, not function.

In test [2] the target is T1, Cytochrome P450 1A2 (Homo sapiens, UniProt P05177).
T1 sequence (P05177 whole entry): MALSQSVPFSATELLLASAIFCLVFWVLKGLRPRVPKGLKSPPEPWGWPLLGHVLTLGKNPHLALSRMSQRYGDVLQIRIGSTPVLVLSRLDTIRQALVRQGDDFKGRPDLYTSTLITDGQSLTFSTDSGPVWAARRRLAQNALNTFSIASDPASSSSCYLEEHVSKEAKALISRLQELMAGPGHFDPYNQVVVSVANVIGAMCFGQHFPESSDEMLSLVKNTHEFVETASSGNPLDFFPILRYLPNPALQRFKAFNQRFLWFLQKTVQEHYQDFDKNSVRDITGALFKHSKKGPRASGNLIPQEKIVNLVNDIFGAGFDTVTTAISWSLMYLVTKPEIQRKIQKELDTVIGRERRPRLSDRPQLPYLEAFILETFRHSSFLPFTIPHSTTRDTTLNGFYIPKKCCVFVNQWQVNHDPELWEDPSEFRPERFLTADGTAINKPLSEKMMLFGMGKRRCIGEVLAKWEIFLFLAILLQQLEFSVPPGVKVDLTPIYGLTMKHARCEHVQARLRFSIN
The test is described as follows: Inhibition of CYP1A2. The test is classed as ADME.

Test [3] deals with Cytochrome P450 2C9 (Homo sapiens, UniProt P11712). The test is described as follows: Inhibition of CYP2C9. It is filed as ADME.
The target of test [4] is Cytochrome P450 2C19 (Homo sapiens, UniProt P33261). Put plainly: Inhibition of CYP2C19. The test is classed as ADME.
The target in test [5] is Cytochrome P450 3A4 (Homo sapiens, UniProt P08684). Put plainly: Inhibition of CYP3A4. The test is classed as ADME.
In test [6] the target is T2, Sodium- and chloride-dependent betaine transporter (Homo sapiens, UniProt P48065).
T2 sequence (P48065 whole entry): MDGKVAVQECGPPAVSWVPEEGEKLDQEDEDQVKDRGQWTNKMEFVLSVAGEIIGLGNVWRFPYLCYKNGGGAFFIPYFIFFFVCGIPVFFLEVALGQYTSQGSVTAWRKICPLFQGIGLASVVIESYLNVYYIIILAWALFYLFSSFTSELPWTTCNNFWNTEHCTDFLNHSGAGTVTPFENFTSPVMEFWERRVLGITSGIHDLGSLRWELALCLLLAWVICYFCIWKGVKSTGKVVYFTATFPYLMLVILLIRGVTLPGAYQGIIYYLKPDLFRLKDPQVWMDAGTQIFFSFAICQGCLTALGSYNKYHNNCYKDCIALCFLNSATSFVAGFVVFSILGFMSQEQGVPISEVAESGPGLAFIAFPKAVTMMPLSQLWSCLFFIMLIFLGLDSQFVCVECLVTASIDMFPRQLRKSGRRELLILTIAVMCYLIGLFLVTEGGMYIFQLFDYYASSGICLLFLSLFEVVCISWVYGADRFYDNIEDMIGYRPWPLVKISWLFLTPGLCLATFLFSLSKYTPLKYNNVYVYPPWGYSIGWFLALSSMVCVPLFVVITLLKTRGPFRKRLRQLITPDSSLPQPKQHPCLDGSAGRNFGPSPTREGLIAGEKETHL
The test is described as follows: Inhibition of BGT1.

Test [7] concerns the target T3, Sodium- and chloride-dependent GABA transporter 2 (Homo sapiens, UniProt Q9NSD5).
T3 sequence (Q9NSD5 whole entry): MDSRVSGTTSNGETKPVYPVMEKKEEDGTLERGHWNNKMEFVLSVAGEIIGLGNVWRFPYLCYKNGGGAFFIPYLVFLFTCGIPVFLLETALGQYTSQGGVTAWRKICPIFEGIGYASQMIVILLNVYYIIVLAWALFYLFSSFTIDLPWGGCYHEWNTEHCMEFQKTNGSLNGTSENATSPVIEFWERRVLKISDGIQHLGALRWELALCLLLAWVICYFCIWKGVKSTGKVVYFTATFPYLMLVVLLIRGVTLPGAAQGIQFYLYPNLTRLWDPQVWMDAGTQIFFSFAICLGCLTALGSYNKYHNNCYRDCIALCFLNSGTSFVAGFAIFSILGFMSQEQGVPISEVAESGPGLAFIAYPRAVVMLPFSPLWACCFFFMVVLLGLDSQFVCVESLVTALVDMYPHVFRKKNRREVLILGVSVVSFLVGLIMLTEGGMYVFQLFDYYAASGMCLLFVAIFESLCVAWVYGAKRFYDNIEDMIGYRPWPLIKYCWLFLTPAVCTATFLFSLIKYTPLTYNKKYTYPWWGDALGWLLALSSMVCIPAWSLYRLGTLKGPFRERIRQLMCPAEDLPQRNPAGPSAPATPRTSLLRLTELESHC
Put plainly: Inhibition of GAT2.

Test [8] concerns the target T4, Sodium- and chloride-dependent GABA transporter 3 (Homo sapiens, UniProt P48066).
T4 sequence (P48066 whole entry): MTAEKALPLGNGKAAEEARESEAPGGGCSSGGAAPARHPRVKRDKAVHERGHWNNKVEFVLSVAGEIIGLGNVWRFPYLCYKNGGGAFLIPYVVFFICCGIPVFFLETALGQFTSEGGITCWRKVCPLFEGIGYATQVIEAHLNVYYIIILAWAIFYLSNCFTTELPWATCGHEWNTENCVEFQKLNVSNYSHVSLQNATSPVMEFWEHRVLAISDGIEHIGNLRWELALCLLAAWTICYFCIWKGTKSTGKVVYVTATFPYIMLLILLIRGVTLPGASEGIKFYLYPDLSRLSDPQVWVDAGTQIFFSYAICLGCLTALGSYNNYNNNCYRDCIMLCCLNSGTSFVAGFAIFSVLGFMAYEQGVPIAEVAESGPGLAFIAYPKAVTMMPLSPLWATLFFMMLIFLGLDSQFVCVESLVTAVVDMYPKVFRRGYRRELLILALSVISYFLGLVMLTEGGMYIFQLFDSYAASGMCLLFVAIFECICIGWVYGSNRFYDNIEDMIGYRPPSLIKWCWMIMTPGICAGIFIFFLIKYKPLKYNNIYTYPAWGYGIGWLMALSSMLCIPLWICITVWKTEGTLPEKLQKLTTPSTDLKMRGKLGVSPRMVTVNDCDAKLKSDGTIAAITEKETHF
The test is described as follows: Inhibition of GAT3.

This note sets out measurements from ChEMBL document CHEMBL1641586, “Stereospecific synthesis and structure-activity relationships of unsymmetrical 4,4-diphenylbut-3-enyl derivatives of nipecotic acid as GAT-1 inhibitors” (Bioorg Med Chem Lett, 2011).

Sequence of Sodium- and chloride-dependent GABA transporter 1 (P30531 whole entry): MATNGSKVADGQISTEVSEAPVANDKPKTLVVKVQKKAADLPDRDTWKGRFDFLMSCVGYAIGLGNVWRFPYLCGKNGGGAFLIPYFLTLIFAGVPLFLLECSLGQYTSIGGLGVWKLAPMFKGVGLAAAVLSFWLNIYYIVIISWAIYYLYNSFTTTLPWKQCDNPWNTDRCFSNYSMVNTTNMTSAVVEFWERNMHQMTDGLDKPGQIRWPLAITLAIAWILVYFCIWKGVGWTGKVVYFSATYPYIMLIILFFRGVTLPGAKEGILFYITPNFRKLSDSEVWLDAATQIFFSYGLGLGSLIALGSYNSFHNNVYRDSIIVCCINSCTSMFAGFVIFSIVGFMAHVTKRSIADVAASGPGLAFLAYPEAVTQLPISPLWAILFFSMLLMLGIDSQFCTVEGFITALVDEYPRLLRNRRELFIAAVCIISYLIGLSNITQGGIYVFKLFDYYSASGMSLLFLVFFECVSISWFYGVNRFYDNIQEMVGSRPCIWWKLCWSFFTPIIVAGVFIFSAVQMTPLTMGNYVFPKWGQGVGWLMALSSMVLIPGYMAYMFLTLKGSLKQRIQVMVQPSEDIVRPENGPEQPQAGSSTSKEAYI
Sequence of Cytochrome P450 2C9 (P11712 whole entry): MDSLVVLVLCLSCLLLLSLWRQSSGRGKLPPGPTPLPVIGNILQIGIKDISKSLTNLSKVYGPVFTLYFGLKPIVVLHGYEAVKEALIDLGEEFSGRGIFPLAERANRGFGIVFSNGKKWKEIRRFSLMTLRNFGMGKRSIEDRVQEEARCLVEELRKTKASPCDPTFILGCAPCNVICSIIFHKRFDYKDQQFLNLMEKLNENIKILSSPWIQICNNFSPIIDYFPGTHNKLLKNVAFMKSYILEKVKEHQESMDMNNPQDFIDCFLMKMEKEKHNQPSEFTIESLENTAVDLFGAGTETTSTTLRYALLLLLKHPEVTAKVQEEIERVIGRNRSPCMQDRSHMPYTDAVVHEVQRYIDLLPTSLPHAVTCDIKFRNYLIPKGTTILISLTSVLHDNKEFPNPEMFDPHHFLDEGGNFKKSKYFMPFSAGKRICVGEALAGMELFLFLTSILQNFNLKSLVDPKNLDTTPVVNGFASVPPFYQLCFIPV
Sequence of Cytochrome P450 3A4 (P08684 whole entry): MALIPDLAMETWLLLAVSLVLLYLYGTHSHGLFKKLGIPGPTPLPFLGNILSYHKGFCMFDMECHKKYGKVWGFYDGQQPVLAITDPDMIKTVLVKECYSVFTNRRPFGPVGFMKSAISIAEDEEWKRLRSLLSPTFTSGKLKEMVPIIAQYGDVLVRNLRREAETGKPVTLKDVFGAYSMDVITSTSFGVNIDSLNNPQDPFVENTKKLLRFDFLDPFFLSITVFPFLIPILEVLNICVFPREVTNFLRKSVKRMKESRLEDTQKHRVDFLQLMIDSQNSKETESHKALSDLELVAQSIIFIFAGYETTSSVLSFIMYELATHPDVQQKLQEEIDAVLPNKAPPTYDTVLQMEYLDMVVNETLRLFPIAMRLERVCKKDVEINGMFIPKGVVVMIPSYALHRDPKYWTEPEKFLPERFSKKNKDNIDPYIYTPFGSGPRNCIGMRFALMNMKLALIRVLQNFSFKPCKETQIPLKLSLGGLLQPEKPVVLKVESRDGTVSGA
Sequence of Cytochrome P450 2C19 (P33261 whole entry): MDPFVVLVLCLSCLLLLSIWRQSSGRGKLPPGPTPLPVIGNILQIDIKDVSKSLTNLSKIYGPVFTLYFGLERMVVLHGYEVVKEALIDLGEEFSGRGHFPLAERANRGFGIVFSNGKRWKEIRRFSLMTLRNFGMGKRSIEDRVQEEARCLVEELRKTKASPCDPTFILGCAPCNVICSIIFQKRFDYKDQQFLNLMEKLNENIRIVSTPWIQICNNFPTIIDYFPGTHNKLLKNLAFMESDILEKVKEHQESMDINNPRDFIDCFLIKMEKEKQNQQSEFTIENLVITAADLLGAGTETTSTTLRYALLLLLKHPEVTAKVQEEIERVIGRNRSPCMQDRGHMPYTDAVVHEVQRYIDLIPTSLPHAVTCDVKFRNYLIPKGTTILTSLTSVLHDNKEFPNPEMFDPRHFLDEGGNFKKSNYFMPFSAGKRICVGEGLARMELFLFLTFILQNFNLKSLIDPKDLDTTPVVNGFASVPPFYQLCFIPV

In the case of `COc1ccccc1/C(=C/CCN1CCC[C@@H](C(=O)O)C1)c1ccccc1`, the Ki (as a rule, the dissociation constant of the complex between target and ligand, obtained from inhibition or displacement) in test [1] was 372 nM.
The same measure, in the same setting: then `O=C(O)[C@@H]1CCCN(CCC=C(c2ccccc2F)c2ccccc2F)C1`, with 46.8 nM; and `CC(=O)[C@@H]1CC[C@H]2CC[C@@H]1N2CCC=C(c1ccccc1)c1ccccc1`, with 2750 nM.
Same read-out and setting: the figure for `O=C(O)[C@@H]1CCCN(CC/C=C(/c2ccccc2)c2ccccc2-c2ccccc2)C1` is 1070 nM; for `Cc1ccc(C(=CCCN2CC[C@H]3[C@@H](C2)[C@@H]3C(=O)O)c2ccc(C)s2)s1` it is over 10000 nM; for `COc1ccccc1/C(=C\CCN1CCC[C@@H](C(=O)O)C1)c1ccccc1` it is 56.2 nM.
On the same count and under the same terms, the figure for `O=C(O)[C@@H]1CCCN(CC/C=C(\c2ccccc2)c2ccccc2OC(F)(F)F)C1` is 646 nM; for `CCc1ccccc1/C(=C/CCN1CCC[C@@H](C(=O)O)C1)c1ccccc1F` it is 89.1 nM; for `Cc1cc(F)ccc1/C(=C\CCN1CCC[C@@H](C(=O)O)C1)c1ccccc1` it is 33.9 nM.
As for `O=C(O)[C@@H]1CCCN(CC/C=C(\c2ccccc2F)c2ccccc2Cl)C1`, in test [1], the inhibitory constant (Ki) was 158 nM.
`O=C(O)[C@@H]1CCCN(CC/C=C(\c2ccccc2F)c2ccccc2C(F)(F)F)C1`: the Ki in test [1] is 355 nM.
Same read-out and setting: the figure for `O=C(O)[C@@H]1CCCN(CC/C=C(\c2ccccc2)c2ccccc2Br)C1` is 200 nM.
On to `Cc1ccccc1/C(=C/CCN1CCC[C@@H](C(=O)O)C1)c1ccccc1`, for which, in test [1], the Ki is 93.3 nM.
On to `Cc1ccc(C(=CCCN(C)[C@H]2CCC[C@@H]2C(=O)O)c2ccc(C)s2)s1`, for which the Ki in test [1] is over 10000 nM.
The same measure, in the same setting: then `O=C(O)[C@@H]1CCCN(CC/C=C(/c2ccccc2)c2ccccc2Cl)C1`, with 40.7 nM; and `O=C(O)[C@@H]1CCCN(CC/C=C(/c2ccccc2F)c2ccccc2Br)C1`, with 21.9 nM.
As for `O=C(O)[C@@H]1CCCN(CC/C=C(/c2ccccc2)c2ccccc2C(F)(F)F)C1`, the Ki in test [1] was 93.3 nM.
With `Cc1ccc(C(=CCCN2CC[C@@H]3[C@H](C2)[C@@H]3C(=O)O)c2ccc(C)s2)s1`, the Ki in test [1] was over 10000 nM.
Still for that read-out and setting: the figure for `O=C(O)C1(F)CCCN(CCC=C(c2ccccc2)c2ccccc2)C1` (configuration not stated) is 832 nM; for `Cc1cc(F)ccc1/C(=C/CCN1CCC[C@@H](C(=O)O)C1)c1ccccc1` it is 380 nM; for `Cc1ccc(C(=CCCN2CCOC(C(=O)O)C2)c2ccc(C)s2)s1` (configuration not stated) it is over 10000 nM.
Still for that read-out and setting: then `Cc1cccc(C)c1/C(=C\CCN1CCC[C@@H](C(=O)O)C1)c1ccccc1`, with 77.6 nM; and `O=C(O)[C@@H]1CCCN(CC/C=C(/c2ccccc2)c2ccccc2Br)C1`, with 28.8 nM; and `O=C(O)[C@@H]1CCCN(CC/C=C(\c2ccccc2)c2c(F)cccc2F)C1`, with 692 nM.
As to `O=C(O)[C@@H]1CCCN(CC/C=C(/c2ccccc2)c2ccccc2F)C1`, in test [1], the Ki is 69.2 nM.
In the case of `Cc1ccccc1/C(=C\CCN1CCC[C@@H](C(=O)O)C1)c1ccccc1`, the Ki in test [1] was 20.4 nM.
On the same count and under the same terms, the figure for `Cc1ccccc1/C(=C\CCN1CCC[C@@H](C(=O)O)C1)c1ccccc1C(F)(F)F` is 380 nM; for `Cc1ccccc1/C(=C\CCN1CCC[C@@H](C(=O)O)C1)c1ccccc1Cl` it is 61.7 nM.
Take `Cc1ccc(C(=CCCN(C)[C@H]2CCCC[C@@H]2C(=O)O)c2ccc(C)s2)s1`: in test [1], the Ki is over 10000 nM.
The same measure, in the same setting: then `Cc1cc(F)ccc1/C(=C\CCN1CCC[C@@H](C(=O)O)C1)c1ccccc1C(F)(F)F`, with 38.9 nM.
Consider `O=C(O)[C@@H]1CCCN(CC/C=C(\c2ccccc2)c2ccccc2-c2ccccc2)C1`, for which, in test [1], the Ki is 676 nM.
On the same count and under the same terms, then `Cc1ccc(C(=CCCN2C[C@@H]3[C@H](C2)[C@@H]3C(=O)O)c2ccc(C)s2)s1`, with over 10000 nM.
In the case of `Cc1ccccc1C(=CCCN1CCC[C@@H](C(=O)O)C1)c1ccccc1C`, the Ki in test [1] is 41.7 nM.
Same read-out and setting: the figure for `CCc1ccccc1/C(=C\CCN1CCC[C@@H](C(=O)O)C1)c1ccccc1F` is 38 nM; for `Cc1ccc(C(=CCCN2C[C@@H]3[C@H](C2)[C@H]3C(=O)O)c2ccc(C)s2)s1` it is over 10000 nM.
The same measure, in the same setting: then `Cc1ccc(C(=CCCN2CCCC(F)(C(=O)O)C2)c2ccc(C)s2)s1` (configuration not stated), with 138 nM; and `O=C(O)[C@@H]1CCCN(CC/C=C(\c2ccccc2)c2ccccc2C(F)(F)F)C1`, with 1910 nM.
On the same count and under the same terms, then `COc1ccccc1/C(=C\CCN1CCC[C@@H](C(=O)O)C1)c1ccccc1F`, with 53.7 nM; and `CCc1ccccc1/C(=C/CCN1CCC[C@@H](C(=O)O)C1)c1ccccc1`, with 102 nM; and `CCc1ccccc1/C(=C\CCN1CCC[C@@H](C(=O)O)C1)c1ccccc1`, with 29.5 nM.
As for `O=C(O)[C@@H]1CCCN(CC/C=C(\c2ccccc2)c2ccccc2Cl)C1`, the Ki in test [1] was 166 nM.
As for `Cc1ccccc1/C(=C\CCN1CCC[C@@H](C(=O)O)C1)c1ccccc1F`, the Ki in test [1] was 14.8 nM. Also, the IC50 (in general, the midpoint of a concentration-inhibition curve) in test [2] is over 10000 nM; in test [3], over 10000 nM; in test [4] it was over 10000 nM; in test [5] it was over 10000 nM; in test [6], over 100000 nM; in test [7], over 100000 nM. In addition, the IC50 in test [8] is over 100000 nM.
In the case of `COc1ccccc1/C(=C/CCN1CCC[C@@H](C(=O)O)C1)c1ccccc1C`, the Ki in test [1] is 70.8 nM.
Consider `O=C(O)[C@@H]1CCCN(CC/C=C(/c2ccccc2)c2ccccc2OC(F)(F)F)C1`, for which, in test [1], the Ki was 58.9 nM.
On the same count and under the same terms, the figure for `O=C(O)[C@@H]1CCCN(CC/C=C(/c2ccccc2F)c2ccccc2OC(F)(F)F)C1` is 52.5 nM; for `Cc1cc(F)ccc1/C(=C\CCN1CCC[C@@H](C(=O)O)C1)c1ccccc1F` it is 19.1 nM; for `Cc1ccccc1/C(=C/CCN1CCC[C@@H](C(=O)O)C1)c1ccccc1F` it is 72.4 nM.
Consider `O=C(O)[C@@H]1CCCN(CC/C=C(/c2ccccc2)c2c(F)cccc2F)C1`, for which the Ki in test [1] is 331 nM.
For `O=C(O)[C@@H]1CCCN(CC/C=C(\c2ccccc2)c2ccccc2F)C1`, the Ki in test [1] was 372 nM.
Still for that read-out and setting: then `O=C(O)[C@@H]1CCCN(CC/C=C(/c2ccccc2F)c2ccccc2Cl)C1`, with 18.2 nM.
